Measurements: patent US5977133A, “Pyridone antibiotic with improved safety profile” (priority 1998, dated 1999)
Where a name gives a salt, the structure may show the parent alone. Read-outs that look alike come from different tables or passages of the source.

What was measured:
P. aeruginosa (CiproR) = assay: In vitro MIC, agar dilution; type: cell-based; conditions: P. aeruginosa (CiproR), 20 isolates
in vivo = conditions: mouse, ip
E. coli = assay: In vitro MIC, agar dilution; type: cell-based; conditions: 25 isolates
Method: (§1) Each plate was inoculated with 1:100 (or 1:10 for slow-growing strains, primarily Micrococcus and Streptococcus) dilutions of up to 32 different microorganisms, using a Steers replicator block calibrated to deliver approximately 10^4 colony forming units (CFU's). The inoculated plates were incubated at from about 35° C. to about 37 ° C. for approximately 20-24 hours. In addition, a control plate using BHI agar containing no test compound was prepared and incubated at the beginning and at the end of each test. The quinolone antibacterial ciprofloxacin was used as a control ("Cntl").
(§2) The numbers below the microorganism species indicate the nunbers of isolates tested. […] The MIC is defined as the lowest concentration of test compound yielding no growth (a slight haze or sparsely isolated colonies at the inoculum spot) as compared to the growth control containing no test compound.

P. aeruginosa (CiproS) = assay: In vitro MIC, agar dilution; type: cell-based
B. fragilis = assay: In vitro MIC, agar dilution; type: cell-based
E. faecium (CiproR) = assay: In vitro MIC, agar dilution; type: cell-based
S. aureus (CiproR) = assay: In vitro MIC, agar dilution; type: cell-based
E. faecalis (VanS) = assay: In vitro MIC, agar dilution; type: cell-based
Escherichia coli JUHL = assay: In vivo efficacy, mouse infection (ED50); conditions: Escherichia coli, in Mus musculus, 168 h
[1] = system: Streptococcus pneumoniae 6303; assay: In vivo efficacy, mouse infection (ED50); conditions: Streptococcus pneumoniae, 6303, in Mus musculus, 168 h
[2] = system: staphylococcus aureus NTCC 10649; assay: In vivo efficacy, mouse infection (ED50); conditions: Staphylococcus aureus, NTCC10649, in Mus musculus, 168 h
S. pneumoniae (PenR) = assay: In vitro MIC, agar dilution; type: cell-based
E. faecium (CiproS) = assay: In vitro MIC, agar dilution; type: cell-based
Enterococcus spp. (VanR) = assay: In vitro MIC, agar dilution; type: cell-based
S. aureus (CiproS) = assay: In vitro MIC, agar dilution; type: cell-based
S. pneumoniae (PenS) = assay: In vitro MIC, agar dilution; type: cell-based
M. catarrhalis = assay: In vitro MIC, agar dilution; type: cell-based; conditions: M. catarrhalis, 18 isolates
M. avium = assay: In vitro MIC, agar dilution; type: cell-based; conditions: M. avium, 20 isolates
Salmonella spp. = assay: In vitro MIC, agar dilution; type: cell-based; conditions: 23 isolates
Method: as §1, §2

S. pyogenes = assay: In vitro MIC, agar dilution; type: cell-based; conditions: S. pyogenes, 21 isolates
Providencia spp. = assay: In vitro MIC, agar dilution; type: cell-based; conditions: Providencia spp., 28 isolates
Klebsiella spp. = assay: In vitro MIC, agar dilution; type: cell-based; conditions: Klebsiella spp., 29 isolates
S. pneumoniae (CiproR) = assay: In vitro MIC, agar dilution; type: cell-based; conditions: S. pneumoniae (CiproR), 3 isolates
Legionella spp. = assay: microbe, parasite or virus in culture; type: cell-based
C. freundii = assay: In vitro MIC, agar dilution; type: cell-based; conditions: C. freundii, 20 isolates
N. gonorrhoeae = assay: In vitro MIC, agar dilution; type: cell-based; conditions: N. gonorrhoeae, 12 isolates
H. influenzae = assay: In vitro MIC, agar dilution; type: cell-based; conditions: H. influenzae, 18 isolates
S. epidermidis (CiproS) = assay: In vitro MIC, agar dilution; type: cell-based; conditions: S. epidermidis (CiproS), 23 isolates
C. difficile = assay: In vitro MIC, agar dilution; type: cell-based; conditions: C. difficile, 10 isolates
M. pneumoniae = assay: In vitro MIC, agar dilution; type: cell-based; conditions: M. pneumoniae, 7 isolates
C. perfringens = assay: microbe, parasite or virus in culture; type: cell-based; conditions: C. perfringens, 13 isolates
S. epidermidis (CiproR) = assay: In vitro MIC, agar dilution; type: cell-based; conditions: S. epidermidis (CiproR), 11 isolates
Enterobacter spp. = assay: In vitro MIC, agar dilution; type: cell-based; conditions: Enterobacter spp., 35 isolates
H. pylori = assay: In vitro MIC, agar dilution; type: cell-based; conditions: H. pylori, 17 isolates
P. mirabilis = assay: In vitro MIC, agar dilution; type: cell-based; conditions: P. mirabilis, 20 isolates
[3] = Enterococcus faecium, read-out: MIC Range
[4] = P. aeruginosa (CiproS), 24 isolates
[5] = S. aureus (CiproR), 25 isolates
[6] = E. faecalis (VanS), 17 isolates
[7] = S. pneumoniae (PenR), 25 isolates
[8] = E. faecium (CiproS), 16 isolates
[9] = Enterococcus spp. (VanR), 21 isolates
[10] = S. pneumoniae (PenS), 20 isolates

Cc1c(N2CC[C@H](N)C2)c(F)cn2c(=O)c(C(=O)O)cc(C3CC3)c12 [Example 2, 1-cyclopropyl-8-(3(S)-3-amino-1-pyrrolidinyl)-7-fluoro-9-methvl-4-oxo-4H-quinolizine-3-carboxylic acid hydrochloride]
MIC50 (P. aeruginosa (CiproR); Pseudomonas aeruginosa, read-out: MIC50): 2 µg/mL
MIC90 (P. aeruginosa (CiproR); Pseudomonas aeruginosa, read-out: MIC90): 2 µg/mL
MIC (P. aeruginosa (CiproR); Pseudomonas aeruginosa, read-out: MIC Range): 1 to 4 µg/mL
LD50 at 504 h (in vivo): 38.8 mg/kg
MIC (E. coli; Escherichia coli): 4 to 15 ng/mL
MIC50 (E. coli; Escherichia coli, read-out: MIC50): 4 ng/mL
MIC90 (E. coli; Escherichia coli, read-out: MIC90): 8 ng/mL
MIC90 (P. aeruginosa (CiproS); Pseudomonas aeruginosa): 0.25 µg/mL
MIC50 (P. aeruginosa (CiproS); Pseudomonas aeruginosa, P. aeruginosa (CiproS), 24 isolates, read-out: MIC50): 0.06 µg/mL
MIC (P. aeruginosa (CiproS); Pseudomonas aeruginosa, P. aeruginosa (CiproS), 24 isolates, read-out: MIC Range): 0.015 to 0.5 µg/mL
MIC90 (B. fragilis; Bacteroides fragilis): 0.5 µg/mL
MIC (B. fragilis; Bacteroides fragilis, read-out: MIC Range): 0.06 to 0.5 µg/mL
MIC50 (B. fragilis; Bacteroides fragilis, B. fragilis, 18 isolates, read-out: MIC50): 0.12 µg/mL
MIC (E. faecium (CiproR); [3]): 0.5 to 2 µg/mL
body weight loss (mouse, in vivo, ip, 100 mg/kg): 38%
MIC90 (S. aureus (CiproR); Staphylococcus aureus): 0.25 µg/mL
MIC50 (S. aureus (CiproR); Staphylococcus aureus, S. aureus (CiproR), 25 isolates, read-out: MIC50): 0.25 µg/mL
MIC (S. aureus (CiproR); Staphylococcus aureus, S. aureus (CiproR), 25 isolates, read-out: MIC Range): 0.03 to 1 µg/mL
MIC90 (E. faecalis (VanS); Enterococcus faecalis): 0.12 µg/mL
MIC50 (E. faecalis (VanS); Enterococcus faecalis, E. faecalis (VanS), 17 isolates, read-out: MIC50): 0.06 µg/mL
MIC (E. faecalis (VanS); Enterococcus faecalis, E. faecalis (VanS), 17 isolates, read-out: MIC Range): 0.03 to 0.12 µg/mL
ED50 (Escherichia coli JUHL; po): 0.6 mg/kg
ED50 (Escherichia coli JUHL; sc): 0.1 mg/kg
ED50 ([1]; po): 5.3 mg/kg
ED50 ([1]; sc): 1.6 mg/kg
ED50 ([2]; po): 3.4 mg/kg
ED50 ([2]; sc): 0.6 mg/kg
MIC50 (S. pneumoniae (PenR); Streptococcus pneumoniae): 0.03 µg/mL
MIC90 (S. pneumoniae (PenR); Streptococcus pneumoniae): 0.03 µg/mL
MIC (S. pneumoniae (PenR); Streptococcus pneumoniae, S. pneumoniae (PenR), 25 isolates, read-out: MIC Range): 0.03 µg/mL
MIC90 (E. faecium (CiproS); Enterococcus faecium): 0.25 µg/mL
MIC (E. faecium (CiproS); [3]): 0.25 to 0.5 µg/mL
MIC50 (E. faecium (CiproS); Enterococcus faecium, E. faecium (CiproS), 16 isolates, read-out: MIC50): 0.25 µg/mL
MIC90 (Enterococcus spp. (VanR); Enterococcus): 0.25 µg/mL
MIC50 (Enterococcus spp. (VanR); Enterococcus spp. (VanR), 21 isolates, read-out: MIC50): 0.25 µg/mL
MIC (Enterococcus spp. (VanR); Enterococcus spp. (VanR), 21 isolates, read-out: MIC Range): 0.12 to 2 µg/mL
MIC90 (S. aureus (CiproS); Staphylococcus aureus): 0.015 µg/mL
MIC50 (S. aureus (CiproS); Staphylococcus aureus, S. aureus (CiproS), 21 isolates, read-out: MIC50): 8 ng/mL
MIC (S. aureus (CiproS); Staphylococcus aureus, S. aureus (CiproS), 21 isolates, read-out: MIC Range): 0.008 to 0.015 µg/mL
MIC50 (S. pneumoniae (PenS); Streptococcus pneumoniae): 0.03 µg/mL
MIC90 (S. pneumoniae (PenS); Streptococcus pneumoniae): 0.03 µg/mL
MIC (S. pneumoniae (PenS); Streptococcus pneumoniae, S. pneumoniae (PenS), 20 isolates, read-out: MIC Range): 0.015 to 0.03 µg/mL

Cc1c(N2CC[C@H](N)C2)c(F)cn2c(=O)c(C(=O)O)cc(C3CC3)c12.Cl [Example 3, 1-cyclopropyl-8-(3(S)-3-amino-1-pyrrolidinyl)-7-fluoro-9-methyl-4-oxo-4H-quinolizine-3-carboxylic acid hydrochloride]
MIC50 (P. aeruginosa (CiproR)): 16 µg/mL
MIC90 (P. aeruginosa (CiproR)): 32 µg/mL
MIC Range (P. aeruginosa (CiproR)): 16 to 64 µg/mL
MIC50 (M. catarrhalis): 0.06 µg/mL
MIC90 (M. catarrhalis): 0.06 µg/mL
MIC Range (M. catarrhalis): 0.015 to 0.06 µg/mL
MIC50 (M. avium): 4 µg/mL
MIC90 (M. avium): 16 µg/mL
MIC Range (M. avium): 1 to 32 µg/mL
MIC50 (E. coli): 30 ng/mL
MIC90 (E. coli): 60 ng/mL
MIC50 (Salmonella spp.): 0.06 µg/mL
MIC90 (Salmonella spp.): 0.06 µg/mL
MIC50 (P. aeruginosa (CiproS); [4]): 0.25 µg/mL
MIC90 (P. aeruginosa (CiproS); [4]): 1 µg/mL
MIC Range (P. aeruginosa (CiproS); [4]): 0.12 to 1 µg/mL
MIC50 (S. pyogenes): 0.03 µg/mL
MIC90 (S. pyogenes): 0.06 µg/mL
MIC Range (S. pyogenes): 0.015 to 0.06 µg/mL
MIC50 (Providencia spp.): 0.12 µg/mL
MIC90 (Providencia spp.): 0.25 µg/mL
MIC Range (Providencia spp.): 0.03 to 1 µg/mL
MIC50 (Klebsiella spp.): 0.12 µg/mL
MIC90 (Klebsiella spp.): 0.12 µg/mL
MIC Range (Klebsiella spp.): 0.015 to 0.5 µg/mL
MIC Range (S. pneumoniae (CiproR)): 0.12 to 0.25 µg/mL
MIC50 (B. fragilis; B. fragilis, 18 isolates): 0.25 µg/mL
MIC90 (B. fragilis; B. fragilis, 18 isolates): 0.5 µg/mL
MIC Range (B. fragilis; B. fragilis, 18 isolates): 0.12 to 0.5 µg/mL
MIC50 (Legionella spp.): 0.5 µg/mL
MIC90 (Legionella spp.): 1 µg/mL
MIC Range (Legionella spp.): 0.5 to 1 µg/mL
MIC50 (C. freundii): 0.06 µg/mL
MIC90 (C. freundii): 0.25 µg/mL
MIC Range (C. freundii): 0.015 to 0.25 µg/mL
MIC50 (N. gonorrhoeae): 8 ng/mL
MIC90 (N. gonorrhoeae): 0.03 µg/mL
MIC Range (N. gonorrhoeae): 8 to 60 ng/mL
MIC Range (E. faecium (CiproR); E. faecium (CiproR), 2 isolates): 1 to 4 µg/mL
LD50 (mice, single intraperitoneal injection, 21 days): 105.0 mg/kg
MIC50 (S. aureus (CiproR); [5]): 0.25 µg/mL
MIC90 (S. aureus (CiproR); [5]): 0.5 µg/mL
MIC Range (S. aureus (CiproR); [5]): 0.06 to 2 µg/mL
MIC50 (E. faecalis (VanS); [6]): 0.25 µg/mL
MIC90 (E. faecalis (VanS); [6]): 0.25 µg/mL
MIC Range (E. faecalis (VanS); [6]): 0.12 to 0.25 µg/mL
MIC50 (H. influenzae): 0.015 µg/mL
MIC90 (H. influenzae): 0.03 µg/mL
MIC Range (H. influenzae): 8 to 60 ng/mL
MIC50 (S. epidermidis (CiproS)): 0.03 µg/mL
MIC90 (S. epidermidis (CiproS)): 0.06 µg/mL
MIC Range (S. epidermidis (CiproS)): 0.015 to 0.06 µg/mL
MIC50 (C. difficile): 0.25 µg/mL
MIC90 (C. difficile): 0.5 µg/mL
MIC Range (C. difficile): 0.25 to 0.5 µg/mL
MIC Range (M. pneumoniae): 0.06 to 0.12 µg/mL
MIC50 (S. pneumoniae (PenR); [7]): 0.12 µg/mL
MIC90 (S. pneumoniae (PenR); [7]): 0.12 µg/mL
MIC Range (S. pneumoniae (PenR); [7]): 0.06 to 0.12 µg/mL
MIC50 (C. perfringens): 0.12 µg/mL
MIC90 (C. perfringens): 0.25 µg/mL
MIC Range (C. perfringens): 0.06 to 0.25 µg/mL
MIC50 (S. epidermidis (CiproR)): 0.25 µg/mL
MIC90 (S. epidermidis (CiproR)): 1 µg/mL
MIC Range (S. epidermidis (CiproR)): 0.25 to 2 µg/mL
MIC50 (E. faecium (CiproS); [8]): 0.5 µg/mL
MIC90 (E. faecium (CiproS); [8]): 1 µg/mL
MIC Range (E. faecium (CiproS); [8]): 0.25 to 1 µg/mL
MIC50 (Enterobacter spp.): 0.06 µg/mL
MIC90 (Enterobacter spp.): 0.12 µg/mL
MIC Range (Enterobacter spp.): 0.03 to 0.5 µg/mL
MIC50 (Enterococcus spp. (VanR); [9]): 0.5 µg/mL
MIC90 (Enterococcus spp. (VanR); [9]): 1 µg/mL
MIC Range (Enterococcus spp. (VanR); [9]): 0.12 to 4 µg/mL
MIC Range (S. aureus (CiproS); S. aureus (CiproS), 21 isolates): 0.015 to 0.06 µg/mL
MIC50 (H. pylori): 0.12 µg/mL
MIC90 (H. pylori): 0.25 µg/mL
MIC Range (H. pylori): 0.06 to 0.5 µg/mL
MIC50 (P. mirabilis): 0.12 µg/mL
MIC90 (P. mirabilis): 0.25 µg/mL
MIC Range (P. mirabilis): 0.06 to 0.25 µg/mL
MIC50 (S. pneumoniae (PenS); [10]): 0.06 µg/mL
MIC90 (S. pneumoniae (PenS); [10]): 0.12 µg/mL
MIC Range (S. pneumoniae (PenS); [10]): 0.06 to 0.12 µg/mL
